According to US20090209538A1, “THERAPEUTIC SUBSTITUTED LACTAMS” (ALLERGAN, INC., priority 2008, published 2009):
“Also recorded” adds a separate entry of the source.

Test system: patients having glaucoma (lashes and adjacent hairs)
Experiment: Clinical observation of lash and hair growth in glaucoma patients treated in one eye
Type: in vivo, humans
Settings: glaucoma patients treated unilaterally; treated versus control areas
From the text: In the course of treating patients having glaucoma, treatment may only be appropriate in one eye. […] The lash appearance on the lids of the treated eyes would have appeared quite attractive if it represented a bilateral phenomenon. As a result of its asymmetric nature, the long lashes on one side could be construed as disturbing from a cosmetic standpoint. A systemic examination was preformed as a result of the asymmetric phenomenon. It soon became apparent that this altered appearance was not an isolated finding. […] Definite differences could be identified to varying degrees in the lashes and adjacent hairs of all patients who were taking the drug on a unilateral basis for longer than 6 months.
The changes in the lashes were apparent on gross inspection in several patients once attention was focused on the issue. In those with light colored hair and lashes, the differences were only seen easily with the aid of the high magnification and lighting capabilities of the slit lamp biomicroscope. In the course of glaucoma follow-up examination, attention is generally immediately focused on the eye itself. As a result of the high power magnification needed only one eye is seen at a time and the eye is seen at a high enough power that the lashes are not in focus. […]

CCNC(=O)CCC/C=C\C[C@@H]1[C@@H](/C=C/[C@@H](O)CCc2ccccc2)[C@H](O)C[C@@H]1O [bimatoprost]
lash / hair growth in treated eye versus non-treated eye: longer, thicker, and fuller in the treated eye than in the non-treated eye; also recorded: hair growth is stimulated
